Experimental findings from patent US20230203098A1, “HUMAN TRANSFERRIN RECEPTOR BINDING PEPTIDE” (priority 2020, published 2023) are described below.

The Kd is the constant that tells how readily two partners part at equilibrium.

Where a SMILES comes first, the peptide text is derived from it. Bridges are numbered along the chain shown (N, C = ends). [ ]: non-standard residue; d: D form. NMePhe(3-Cl) = CN[C@@H](Cc1cccc(Cl)c1)C(=O)O; NMeW = CN[C@@H](Cc1c[nH]c2ccccc12)C(=O)O; NMeY = CN[C@@H](Cc1ccc(O)cc1)C(=O)O; PEG4 = NCCOCCOCCOCCOCCC(=O)O; Tle = CC(C)(C)[C@H](N)C(=O)O; dOrn = NCCC[C@@H](N)C(=O)O; Nle = CCCC[C@H](N)C(=O)O; Dab = NCC[C@H](N)C(=O)O; Nva = CCC[C@H](N)C(=O)O; Abu = CC[C@H](N)C(=O)O; Dap = NC[C@H](N)C(=O)O; Aib = CC(C)(N)C(=O)O

transferrin receptor (hTfR), sequence (P02786 whole entry): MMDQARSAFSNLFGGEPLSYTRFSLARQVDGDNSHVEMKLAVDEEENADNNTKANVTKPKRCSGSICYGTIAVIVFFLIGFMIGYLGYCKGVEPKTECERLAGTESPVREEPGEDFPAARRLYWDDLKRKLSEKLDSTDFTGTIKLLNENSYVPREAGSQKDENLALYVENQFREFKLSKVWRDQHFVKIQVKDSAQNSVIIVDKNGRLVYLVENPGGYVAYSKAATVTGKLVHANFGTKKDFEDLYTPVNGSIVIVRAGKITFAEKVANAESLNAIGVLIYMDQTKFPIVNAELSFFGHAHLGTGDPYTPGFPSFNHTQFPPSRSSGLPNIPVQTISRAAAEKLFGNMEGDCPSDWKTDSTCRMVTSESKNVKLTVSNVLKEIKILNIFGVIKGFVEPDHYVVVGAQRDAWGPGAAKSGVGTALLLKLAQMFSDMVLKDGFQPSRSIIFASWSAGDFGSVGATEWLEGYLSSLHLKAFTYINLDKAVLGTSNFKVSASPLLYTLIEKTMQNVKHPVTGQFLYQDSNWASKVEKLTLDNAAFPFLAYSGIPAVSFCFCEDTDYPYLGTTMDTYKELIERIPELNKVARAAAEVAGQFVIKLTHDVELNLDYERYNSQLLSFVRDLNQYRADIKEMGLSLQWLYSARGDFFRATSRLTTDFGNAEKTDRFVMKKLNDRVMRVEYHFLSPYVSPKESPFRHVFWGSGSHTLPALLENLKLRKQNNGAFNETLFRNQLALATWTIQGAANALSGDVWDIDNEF

In this test the target is transferrin receptor (hTfR) (Homo sapiens, UniProt P02786). Briefly: Intermolecular interaction evaluation test between transferrin receptor (hTfR) and peptide by surface plasmon resonance (SPR). As to conditions: surface plasmon resonance, peptide vs hTfR; read-out: KD value, hTfR binding by SPR (class symbol). It is filed as binding. In a few lines:
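hTfR captured on Ni-NTA chip then amine-coupled; peptides run single-cycle kinetics at 5–100 nM in 10 mM HEPES pH 8.0, 150 mM NaCl, 0.05% Tween 20, 0.1% BSA, 1.0% DMSO. KD from least-squares curve fitting of sensorgrams.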
In general terms: In SPR one partner is held on a chip, and binding of the other changes the refractive index at the surface.
On to `CC[C@H](C)[C@@H]1NC(=O)[C@H](Cc2ccc(OCC(=O)O)cc2)NC(=O)[C@H](Cc2ccc(O)cc2)NC(=O)[C@H](CC(N)=O)NC(=O)[C@H](Cc2c[nH]c3ccccc23)N(C)C(=O)[C@H](C(C)C)NC(=O)[C@H](Cc2cccc(Cl)c2)N(C)C(=O)[C@H](C(C)C)NC(=O)[C@H](C)NC(=O)CSC[C@@H](C(N)=O)NC(=O)[C@H](Cc2ccc(O)cc2)N(C)C(=O)[C@H](Cc2ccccc2)NC(=O)[C@@H](CCCNC(=N)N)NC(=O)[C@H](CCCNC(=N)N)NC(=O)[C@H]([C@@H](C)CC)NC1=O` [compound 320], for which the Kd lay in the range of 1 to 100 nM.

On to `CC[C@H](C)[C@@H]1NC(=O)[C@H](Cc2ccc(OCCN)cc2)NC(=O)[C@H](Cc2ccc(O)cc2)NC(=O)[C@H](CC(N)=O)NC(=O)[C@H](Cc2c[nH]c3ccccc23)N(C)C(=O)[C@H](C(C)C)NC(=O)[C@H](Cc2cccc(Cl)c2)N(C)C(=O)[C@H](C(C)C)NC(=O)[C@H](C)NC(=O)CSC[C@@H](C(N)=O)NC(=O)[C@H](Cc2ccc(O)cc2)N(C)C(=O)[C@H](Cc2ccccc2)NC(=O)[C@@H](CCCNC(=N)N)NC(=O)[C@H](CCCNC(=N)N)NC(=O)[C@H]([C@@H](C)CC)NC1=O` [compound 321], for which the Kd lay in the range of 1 to 100 nM.

With `CC[C@H](C)[C@@H]1NC(=O)[C@H](Cc2ccc(O)cc2)NC(=O)[C@H](Cc2ccc(O)cc2)NC(=O)[C@H](CC(N)=O)NC(=O)[C@H](Cc2c[nH]c3ccccc23)N(C)C(=O)[C@H](C(C)C)NC(=O)[C@H](Cc2cccc(Cl)c2)N(C)C(=O)[C@H](C(C)C)NC(=O)[C@H](C)NC(=O)CSC[C@@H](C(=O)NCCOCCOCCOCCOCCC(N)=O)NC(=O)[C@H](Cc2ccc(O)cc2)N(C)C(=O)[C@H](Cc2ccccc2)NC(=O)[C@@H](CCCNC(=N)N)NC(=O)C(C)(C)NC(=O)[C@H]([C@@H](C)CC)NC1=O` [compound 322], the Kd was 1 to 100 nM.

For the molecule `CC[C@H](C)[C@@H]1NC(=O)[C@H](Cc2ccc(OC)nc2)NC(=O)[C@H](Cc2ccc(O)cc2)NC(=O)[C@H](CC(N)=O)NC(=O)[C@H](Cc2c[nH]c3ccccc23)N(C)C(=O)[C@H](C(C)C)NC(=O)[C@H](Cc2cccc(Cl)c2)N(C)C(=O)[C@H](C(C)C)NC(=O)[C@H](C)NC(=O)CSC[C@@H](C(N)=O)NC(=O)[C@H](Cc2ccc(O)cc2)N(C)C(=O)[C@H](Cc2ccccc2)NC(=O)[C@@H](CCCNC(=N)N)NC(=O)C(C)(C)NC(=O)[C@H]([C@@H](C)CC)NC1=O` [compound 323], the Kd was in the range of 1 to 100 nM.

On to `CC[C@H](C)[C@@H]1NC(=O)[C@H](Cc2ccc(OCC(=O)O)cc2)NC(=O)[C@H](Cc2ccc(O)cc2)NC(=O)[C@H](CC(N)=O)NC(=O)[C@H](Cc2c[nH]c3ccccc23)N(C)C(=O)[C@H](C(C)C)NC(=O)[C@H](Cc2cccc(Cl)c2)N(C)C(=O)[C@H](C(C)C)NC(=O)[C@H](C)NC(=O)CSC[C@@H](C(N)=O)NC(=O)[C@H](Cc2ccc(O)cc2)N(C)C(=O)[C@H](Cc2ccccc2)NC(=O)[C@@H](CCCNC(=N)N)NC(=O)C(C)(C)NC(=O)[C@H]([C@@H](C)CC)NC1=O` [compound 324], for which the Kd is more than 1000 nM.

Turning to `CC[C@@H]1NC(=O)[C@H]([C@@H](C)CC)NC(=O)[C@H](Cc2ccc(OC)cc2)NC(=O)[C@H](Cc2ccc(O)cc2)NC(=O)[C@H](CC(N)=O)NC(=O)[C@H](Cc2c[nH]c3ccccc23)N(C)C(=O)[C@H](C(C)C)NC(=O)[C@H](Cc2cccc(Cl)c2)N(C)C(=O)[C@H](C(C)C)NC(=O)[C@H](C)NC(=O)CSC[C@@H](C(=O)NCCOCCOCCOCCOCCC(N)=O)NC(=O)[C@H](Cc2ccc(O)cc2)N(C)C(=O)[C@H](Cc2ccccc2)NC(=O)[C@@H](CCCNC(=N)N)NC(=O)[C@H](CCCNC(=N)N)NC1=O` [compound 325] ({CH2CO}-AV[NMePhe(3-Cl)]V[NMeW]NYY(Me)I[Abu]R[dR]F[NMeY]C[PEG4]-NH2; thioether N-15), the Kd lay in the range of 1 to 100 nM.

Regarding `CCC[C@@H]1NC(=O)[C@H]([C@@H](C)CC)NC(=O)[C@H](Cc2ccc(OC)cc2)NC(=O)[C@H](Cc2ccc(O)cc2)NC(=O)[C@H](CC(N)=O)NC(=O)[C@H](Cc2c[nH]c3ccccc23)N(C)C(=O)[C@H](C(C)C)NC(=O)[C@H](Cc2cccc(Cl)c2)N(C)C(=O)[C@H](C(C)C)NC(=O)[C@H](C)NC(=O)CSC[C@@H](C(=O)NCCOCCOCCOCCOCCC(N)=O)NC(=O)[C@H](Cc2ccc(O)cc2)N(C)C(=O)[C@H](Cc2ccccc2)NC(=O)[C@@H](CCCNC(=N)N)NC(=O)[C@H](CCCNC(=N)N)NC1=O` [compound 326] ({CH2CO}-AV[NMePhe(3-Cl)]V[NMeW]NYY(Me)I[Nva]R[dR]F[NMeY]C[PEG4]-NH2; thioether N-15), the Kd lay within 1 to 100 nM.

Take `CC[C@H](C)[C@@H]1NC(=O)[C@H](Cc2ccc(OC)cc2)NC(=O)[C@H](Cc2ccc(O)cc2)NC(=O)[C@H](CC(N)=O)NC(=O)[C@H](Cc2c[nH]c3ccccc23)N(C)C(=O)[C@H](C(C)C)NC(=O)[C@H](Cc2cccc(Cl)c2)N(C)C(=O)[C@H](C(C)C)NC(=O)[C@H](C)NC(=O)CSC[C@@H](C(=O)NCCOCCOCCOCCOCCC(N)=O)NC(=O)[C@H](Cc2ccc(O)cc2)N(C)C(=O)[C@H](Cc2ccccc2)NC(=O)[C@@H](CCCNC(=N)N)NC(=O)[C@H](CCCNC(=N)N)NC(=O)[C@H](C(C)(C)C)NC1=O` [compound 327] ({CH2CO}-AV[NMePhe(3-Cl)]V[NMeW]NYY(Me)I[Tle]R[dR]F[NMeY]C[PEG4]-NH2; thioether N-15): the Kd is 1 to 100 nM.

For the molecule `CC[C@H](C)[C@@H]1NC(=O)[C@H](Cc2ccc(OC)cc2)NC(=O)[C@H](Cc2ccc(O)cc2)NC(=O)[C@H](CC(N)=O)NC(=O)[C@H](Cc2c[nH]c3ccccc23)N(C)C(=O)[C@H](C(C)C)NC(=O)[C@H](Cc2cccc(Cl)c2)N(C)C(=O)[C@H](C(C)C)NC(=O)[C@H](C)NC(=O)CSC[C@@H](C(=O)NCCOCCOCCOCCOCCC(N)=O)NC(=O)[C@H](Cc2ccc(O)cc2)N(C)C(=O)[C@H](Cc2ccccc2)NC(=O)[C@@H](CCCNC(=N)N)NC(=O)[C@H](CCCNC(=N)N)NC(=O)[C@H]([C@@H](C)O)NC1=O` [compound 331], the Kd fell in the range of 1 to 100 nM.

Turning to `CC[C@H](C)[C@@H]1NC(=O)[C@H](Cc2ccc(OC)cc2)NC(=O)[C@H](Cc2ccc(O)cc2)NC(=O)[C@H](CC(N)=O)NC(=O)[C@H](Cc2c[nH]c3ccccc23)N(C)C(=O)[C@H](C(C)C)NC(=O)[C@H](Cc2cccc(Cl)c2)N(C)C(=O)[C@H](C(C)C)NC(=O)[C@H](C)NC(=O)CSC[C@@H](C(=O)NCCOCCOCCOCCOCCC(N)=O)NC(=O)[C@H](Cc2ccc(O)cc2)N(C)C(=O)[C@H](Cc2ccccc2)NC(=O)[C@@H](CCCNC(=N)N)NC(=O)[C@H](CCCNC(=N)N)NC(=O)[C@H]([C@H](C)O)NC1=O` [compound 332], the Kd fell in the range of 1 to 100 nM.

Regarding `CC[C@H](C)[C@@H]1NC(=O)[C@H](Cc2ccc(OC)cc2)NC(=O)[C@H](Cc2ccc(O)cc2)NC(=O)[C@H](CC(N)=O)NC(=O)[C@H](Cc2c[nH]c3ccccc23)N(C)C(=O)[C@H](C(C)C)NC(=O)[C@H](Cc2cccc(Cl)c2)N(C)C(=O)[C@H](C(C)C)NC(=O)[C@H](C)NC(=O)CSC[C@@H](C(=O)NCCOCCOCCOCCOCCC(N)=O)NC(=O)[C@H](Cc2ccc(O)cc2)N(C)C(=O)[C@H](Cc2ccccc2)NC(=O)[C@@H](CCCNC(=N)N)NC(=O)[C@H](CCCNC(=N)N)NC(=O)C(C)(C)NC1=O` [compound 333] ({CH2CO}-AV[NMePhe(3-Cl)]V[NMeW]NYY(Me)I[Aib]R[dR]F[NMeY]C[PEG4]-NH2; thioether N-15), the Kd is 1 to 100 nM.

Take `CCCC[C@@H]1NC(=O)[C@H]([C@@H](C)CC)NC(=O)[C@H](Cc2ccc(OC)cc2)NC(=O)[C@H](Cc2ccc(O)cc2)NC(=O)[C@H](CC(N)=O)NC(=O)[C@H](Cc2c[nH]c3ccccc23)N(C)C(=O)[C@H](C(C)C)NC(=O)[C@H](Cc2cccc(Cl)c2)N(C)C(=O)[C@H](C(C)C)NC(=O)[C@H](C)NC(=O)CSC[C@@H](C(=O)NCCOCCOCCOCCOCCC(N)=O)NC(=O)[C@H](Cc2ccc(O)cc2)N(C)C(=O)[C@H](Cc2ccccc2)NC(=O)[C@@H](CCCNC(=N)N)NC(=O)[C@H](CCCNC(=N)N)NC1=O` [compound 334] ({CH2CO}-AV[NMePhe(3-Cl)]V[NMeW]NYY(Me)I[Nle]R[dR]F[NMeY]C[PEG4]-NH2; thioether N-15): the Kd lay within 1 to 100 nM.

Regarding `CC[C@H](C)[C@@H]1NC(=O)[C@H](Cc2ccc(OC)cc2)NC(=O)[C@H](Cc2ccc(O)cc2)NC(=O)[C@H](CC(N)=O)NC(=O)[C@H](Cc2c[nH]c3ccccc23)N(C)C(=O)[C@H](C(C)C)NC(=O)[C@H](Cc2cccc(Cl)c2)N(C)C(=O)[C@H](C(C)C)NC(=O)[C@H](C)NC(=O)CSC[C@@H](C(=O)NCCOCCOCCOCCOCCC(N)=O)NC(=O)[C@H](Cc2ccc(O)cc2)N(C)C(=O)[C@H](Cc2ccccc2)NC(=O)[C@@H](CCCNC(=N)N)NC(=O)[C@H](CCCNC(=N)N)NC(=O)[C@H](CN)NC1=O` [compound 336] ({CH2CO}-AV[NMePhe(3-Cl)]V[NMeW]NYY(Me)I[Dap]R[dR]F[NMeY]C[PEG4]-NH2; thioether N-15), the Kd fell in the range of 1 to 100 nM.

Turning to `CC[C@H](C)[C@@H]1NC(=O)[C@H](Cc2ccc(OC)cc2)NC(=O)[C@H](Cc2ccc(O)cc2)NC(=O)[C@H](CC(N)=O)NC(=O)[C@H](Cc2c[nH]c3ccccc23)N(C)C(=O)[C@H](C(C)C)NC(=O)[C@H](Cc2cccc(Cl)c2)N(C)C(=O)[C@H](C(C)C)NC(=O)[C@H](C)NC(=O)CSC[C@@H](C(=O)NCCOCCOCCOCCOCCC(N)=O)NC(=O)[C@H](Cc2ccc(O)cc2)N(C)C(=O)[C@H](Cc2ccccc2)NC(=O)[C@@H](CCCNC(=N)N)NC(=O)[C@H](CCCNC(=N)N)NC(=O)[C@H](CCN)NC1=O` [compound 337] ({CH2CO}-AV[NMePhe(3-Cl)]V[NMeW]NYY(Me)I[Dab]R[dR]F[NMeY]C[PEG4]-NH2; thioether N-15), the Kd fell in the range of 1 to 100 nM.

With `CC[C@H](C)[C@@H]1NC(=O)[C@H](Cc2ccc(OC)cc2)NC(=O)[C@H](Cc2ccc(O)cc2)NC(=O)[C@H](CC(N)=O)NC(=O)[C@H](Cc2c[nH]c3ccccc23)N(C)C(=O)[C@H](C(C)C)NC(=O)[C@H](Cc2cccc(Cl)c2)N(C)C(=O)[C@H](C(C)C)NC(=O)[C@H](C)NC(=O)CSC[C@@H](C(=O)NCCOCCOCCOCCOCCC(N)=O)NC(=O)[C@H](Cc2ccc(O)cc2)N(C)C(=O)[C@H](Cc2ccccc2)NC(=O)[C@@H](CCCNC(=N)N)NC(=O)[C@H](CCCNC(=N)N)NC(=O)[C@@H](CCCN)NC1=O` [compound 338] ({CH2CO}-AV[NMePhe(3-Cl)]V[NMeW]NYY(Me)I[dOrn]R[dR]F[NMeY]C[PEG4]-NH2; thioether N-15), the Kd lay in the range of 1 to 100 nM.
